Results reported in ChEMBL document CHEMBL3991601, “The target landscape of clinical kinase drugs” (Science, 2017).
Activity calls are given as the source filed them.

molecular target: Mitotic checkpoint serine/threonine-protein kinase BUB1 (Homo sapiens, UniProt O43683)
Note: in the data inactive means no Kd found up to 30 µM.

Chain of Mitotic checkpoint serine/threonine-protein kinase BUB1 (O43683 whole entry): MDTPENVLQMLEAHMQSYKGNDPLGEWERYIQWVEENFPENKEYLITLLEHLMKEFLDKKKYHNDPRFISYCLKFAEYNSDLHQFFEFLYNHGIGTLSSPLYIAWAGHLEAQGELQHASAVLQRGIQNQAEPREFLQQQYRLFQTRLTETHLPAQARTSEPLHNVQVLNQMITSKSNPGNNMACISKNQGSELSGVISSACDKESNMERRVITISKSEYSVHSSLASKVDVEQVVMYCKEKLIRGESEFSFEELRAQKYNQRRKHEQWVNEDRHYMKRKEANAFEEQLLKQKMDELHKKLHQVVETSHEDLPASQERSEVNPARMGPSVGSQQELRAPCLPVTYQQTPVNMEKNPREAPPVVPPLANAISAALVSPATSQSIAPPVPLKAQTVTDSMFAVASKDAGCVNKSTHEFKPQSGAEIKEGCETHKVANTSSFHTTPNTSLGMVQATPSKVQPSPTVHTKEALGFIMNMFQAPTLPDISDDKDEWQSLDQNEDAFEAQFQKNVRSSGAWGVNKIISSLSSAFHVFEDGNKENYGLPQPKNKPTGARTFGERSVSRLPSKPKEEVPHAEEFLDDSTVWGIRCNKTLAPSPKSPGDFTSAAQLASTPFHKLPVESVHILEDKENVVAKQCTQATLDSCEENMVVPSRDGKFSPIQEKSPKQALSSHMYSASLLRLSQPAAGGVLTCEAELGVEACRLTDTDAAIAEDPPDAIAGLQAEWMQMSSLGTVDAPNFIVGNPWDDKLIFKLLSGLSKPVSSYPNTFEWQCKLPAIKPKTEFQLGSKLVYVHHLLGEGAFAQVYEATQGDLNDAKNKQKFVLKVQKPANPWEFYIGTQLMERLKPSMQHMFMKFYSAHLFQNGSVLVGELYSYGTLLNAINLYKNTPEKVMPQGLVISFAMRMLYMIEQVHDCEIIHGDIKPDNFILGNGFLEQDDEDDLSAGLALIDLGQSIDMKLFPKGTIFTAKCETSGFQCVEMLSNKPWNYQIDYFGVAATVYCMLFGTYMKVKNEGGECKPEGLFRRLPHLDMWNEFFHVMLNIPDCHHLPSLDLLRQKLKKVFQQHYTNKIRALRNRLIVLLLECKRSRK

Compound | Kd
CN1CCN(c2ccc3nc(-c4c(N)c5c(F)cccc5[nH]c4=O)[nH]c3c2)CC1 [DOVITINIB] | > 30 µM (inactive)
Cc1cc(Nc2cc(N3CCN(C)CC3)nc(/C=C/c3ccccc3)n2)n[nH]1 [ENMD-2076] | > 30 µM (inactive)
CCn1c(-c2nonc2N)nc2c(C#CC(C)(C)O)ncc(OC[C@H]3CCCNC3)c21 [GSK-690693] | > 30 µM (inactive)
COc1cc2nccc(Oc3ccc(NC(=O)NC4CC4)c(Cl)c3)c2cc1C(N)=O [LENVATINIB] | > 30 µM (inactive)

molecular target: T1, Ferrochelatase, mitochondrial (Homo sapiens, UniProt P22830)
T1 sequence (P22830 whole entry): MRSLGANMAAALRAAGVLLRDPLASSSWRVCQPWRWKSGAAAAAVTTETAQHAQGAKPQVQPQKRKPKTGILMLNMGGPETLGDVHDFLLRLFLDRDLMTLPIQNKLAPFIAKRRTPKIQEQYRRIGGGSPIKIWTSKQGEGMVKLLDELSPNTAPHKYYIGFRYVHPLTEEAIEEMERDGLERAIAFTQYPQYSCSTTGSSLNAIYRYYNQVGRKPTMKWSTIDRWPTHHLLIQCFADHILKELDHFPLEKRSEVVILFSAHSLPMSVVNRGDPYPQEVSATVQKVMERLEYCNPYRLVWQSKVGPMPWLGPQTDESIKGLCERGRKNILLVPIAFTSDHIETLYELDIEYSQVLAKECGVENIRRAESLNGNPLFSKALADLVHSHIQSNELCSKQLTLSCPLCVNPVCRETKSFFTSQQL

Compound | Kd
CN1CCN(c2ccc3nc(-c4c(N)c5c(F)cccc5[nH]c4=O)[nH]c3c2)CC1 [DOVITINIB] | > 30 µM (inactive)
Cc1cc(Nc2cc(N3CCN(C)CC3)nc(/C=C/c3ccccc3)n2)n[nH]1 [ENMD-2076] | > 30 µM (inactive)
CCn1c(-c2nonc2N)nc2c(C#CC(C)(C)O)ncc(OC[C@H]3CCCNC3)c21 [GSK-690693] | 2.7 µM (active)
COc1cc2nccc(Oc3ccc(NC(=O)NC4CC4)c(Cl)c3)c2cc1C(N)=O [LENVATINIB] | 2.81 µM (active)

molecular target: T2, Interleukin-1 receptor-associated kinase 3 (Homo sapiens, UniProt Q9Y616)
T2 sequence (Q9Y616 whole entry): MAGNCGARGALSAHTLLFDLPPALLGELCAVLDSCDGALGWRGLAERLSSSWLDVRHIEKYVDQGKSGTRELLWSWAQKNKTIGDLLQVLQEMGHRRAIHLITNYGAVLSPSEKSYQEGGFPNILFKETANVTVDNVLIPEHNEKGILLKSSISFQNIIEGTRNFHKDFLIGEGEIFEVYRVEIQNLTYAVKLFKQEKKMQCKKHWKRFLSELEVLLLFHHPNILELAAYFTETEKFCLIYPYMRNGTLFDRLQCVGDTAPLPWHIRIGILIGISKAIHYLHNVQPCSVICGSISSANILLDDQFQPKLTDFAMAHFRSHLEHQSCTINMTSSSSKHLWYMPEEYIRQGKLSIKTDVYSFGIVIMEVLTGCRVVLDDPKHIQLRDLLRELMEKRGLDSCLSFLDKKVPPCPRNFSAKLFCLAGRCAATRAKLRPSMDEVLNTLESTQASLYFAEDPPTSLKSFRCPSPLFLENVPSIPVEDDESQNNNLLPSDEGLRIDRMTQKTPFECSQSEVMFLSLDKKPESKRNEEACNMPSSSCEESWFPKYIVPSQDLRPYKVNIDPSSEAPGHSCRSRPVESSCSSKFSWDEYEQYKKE

Compound | Kd
Cc1cc(Nc2cc(N3CCN(C)CC3)nc(/C=C/c3ccccc3)n2)n[nH]1 [ENMD-2076] | > 30 µM (inactive)
COc1cc2nccc(Oc3ccc(NC(=O)NC4CC4)c(Cl)c3)c2cc1C(N)=O [LENVATINIB] | > 30 µM (inactive)

molecular target: T3, DNA replication licensing factor MCM4 (Homo sapiens, UniProt P33991)
T3 sequence (P33991 whole entry): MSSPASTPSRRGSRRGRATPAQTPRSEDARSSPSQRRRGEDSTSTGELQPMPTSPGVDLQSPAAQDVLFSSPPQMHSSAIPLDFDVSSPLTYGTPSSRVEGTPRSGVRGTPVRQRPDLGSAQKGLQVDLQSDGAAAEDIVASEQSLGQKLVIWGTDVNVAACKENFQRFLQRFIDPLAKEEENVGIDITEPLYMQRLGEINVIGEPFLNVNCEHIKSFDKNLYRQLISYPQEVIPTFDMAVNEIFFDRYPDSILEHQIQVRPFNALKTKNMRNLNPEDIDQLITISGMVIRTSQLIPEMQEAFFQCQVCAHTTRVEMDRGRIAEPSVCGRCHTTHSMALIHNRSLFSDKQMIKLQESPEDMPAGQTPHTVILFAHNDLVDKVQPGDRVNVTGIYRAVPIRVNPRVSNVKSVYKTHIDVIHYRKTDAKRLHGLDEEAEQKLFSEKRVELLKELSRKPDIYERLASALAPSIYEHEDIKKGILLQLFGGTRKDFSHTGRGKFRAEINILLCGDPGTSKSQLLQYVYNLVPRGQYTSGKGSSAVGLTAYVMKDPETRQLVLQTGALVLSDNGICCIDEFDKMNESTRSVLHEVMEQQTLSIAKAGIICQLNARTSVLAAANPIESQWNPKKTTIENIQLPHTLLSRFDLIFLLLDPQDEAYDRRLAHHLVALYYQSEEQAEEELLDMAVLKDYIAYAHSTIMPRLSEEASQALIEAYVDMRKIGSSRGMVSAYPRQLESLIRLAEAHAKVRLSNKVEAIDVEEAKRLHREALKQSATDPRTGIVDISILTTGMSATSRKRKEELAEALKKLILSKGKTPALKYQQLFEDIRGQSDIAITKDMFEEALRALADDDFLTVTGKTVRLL

Compound | Kd
CN1CCN(c2ccc3nc(-c4c(N)c5c(F)cccc5[nH]c4=O)[nH]c3c2)CC1 [DOVITINIB] | > 30 µM (inactive)
Cc1cc(Nc2cc(N3CCN(C)CC3)nc(/C=C/c3ccccc3)n2)n[nH]1 [ENMD-2076] | > 30 µM (inactive)
CCn1c(-c2nonc2N)nc2c(C#CC(C)(C)O)ncc(OC[C@H]3CCCNC3)c21 [GSK-690693] | > 30 µM (inactive)
COc1cc2nccc(Oc3ccc(NC(=O)NC4CC4)c(Cl)c3)c2cc1C(N)=O [LENVATINIB] | > 30 µM (inactive)

molecular target: Protein-tyrosine kinase 6 (Homo sapiens, UniProt Q13882)
Sequence (Q13882 whole entry): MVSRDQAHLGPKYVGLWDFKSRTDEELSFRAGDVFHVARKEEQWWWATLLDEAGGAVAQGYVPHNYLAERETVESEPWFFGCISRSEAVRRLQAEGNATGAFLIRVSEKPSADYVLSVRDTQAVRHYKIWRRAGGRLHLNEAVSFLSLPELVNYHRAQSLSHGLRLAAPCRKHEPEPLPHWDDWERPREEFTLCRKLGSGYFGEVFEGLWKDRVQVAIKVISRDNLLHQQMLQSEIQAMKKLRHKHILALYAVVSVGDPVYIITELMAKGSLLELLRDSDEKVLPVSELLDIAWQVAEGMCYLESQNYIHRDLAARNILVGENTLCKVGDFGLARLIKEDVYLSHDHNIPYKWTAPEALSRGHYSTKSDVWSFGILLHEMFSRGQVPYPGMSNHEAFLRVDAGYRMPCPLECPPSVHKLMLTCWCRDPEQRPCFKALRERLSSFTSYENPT

Compound | Kd [µM]
COc1cc2nccc(Oc3ccc(NC(=O)NC4CC4)c(Cl)c3)c2cc1C(N)=O [LENVATINIB] | 0.173

molecular target: T4, Ras-related protein Rab-27A (Homo sapiens, UniProt P51159)
T4 sequence (P51159 whole entry): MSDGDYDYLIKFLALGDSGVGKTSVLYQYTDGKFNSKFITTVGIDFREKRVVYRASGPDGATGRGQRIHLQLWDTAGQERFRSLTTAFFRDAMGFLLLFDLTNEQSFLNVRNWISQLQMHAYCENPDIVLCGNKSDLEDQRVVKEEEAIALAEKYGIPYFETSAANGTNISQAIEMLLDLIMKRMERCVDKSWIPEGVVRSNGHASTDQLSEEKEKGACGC

Compound | Kd
CN1CCN(c2ccc3nc(-c4c(N)c5c(F)cccc5[nH]c4=O)[nH]c3c2)CC1 [DOVITINIB] | > 30 µM (inactive)
Cc1cc(Nc2cc(N3CCN(C)CC3)nc(/C=C/c3ccccc3)n2)n[nH]1 [ENMD-2076] | > 30 µM (inactive)
CCn1c(-c2nonc2N)nc2c(C#CC(C)(C)O)ncc(OC[C@H]3CCCNC3)c21 [GSK-690693] | > 30 µM (inactive)
COc1cc2nccc(Oc3ccc(NC(=O)NC4CC4)c(Cl)c3)c2cc1C(N)=O [LENVATINIB] | > 30 µM (inactive)

molecular target: Ras-related protein Rab-6A (Homo sapiens, UniProt P20340)
Sequence (P20340 whole entry): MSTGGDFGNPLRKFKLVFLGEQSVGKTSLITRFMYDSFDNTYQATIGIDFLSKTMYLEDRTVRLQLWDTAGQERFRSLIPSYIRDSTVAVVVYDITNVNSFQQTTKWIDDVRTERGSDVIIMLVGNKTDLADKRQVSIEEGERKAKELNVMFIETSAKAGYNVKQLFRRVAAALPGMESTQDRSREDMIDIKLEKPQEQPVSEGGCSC

Compound | Kd
CN1CCN(c2ccc3nc(-c4c(N)c5c(F)cccc5[nH]c4=O)[nH]c3c2)CC1 [DOVITINIB] | > 30 µM (inactive)
Cc1cc(Nc2cc(N3CCN(C)CC3)nc(/C=C/c3ccccc3)n2)n[nH]1 [ENMD-2076] | > 30 µM (inactive)
CCn1c(-c2nonc2N)nc2c(C#CC(C)(C)O)ncc(OC[C@H]3CCCNC3)c21 [GSK-690693] | > 30 µM (inactive)
COc1cc2nccc(Oc3ccc(NC(=O)NC4CC4)c(Cl)c3)c2cc1C(N)=O [LENVATINIB] | > 30 µM (inactive)

molecular target: Rho-associated protein kinase 1 (Homo sapiens, UniProt Q13464)
Sequence (Q13464 whole entry): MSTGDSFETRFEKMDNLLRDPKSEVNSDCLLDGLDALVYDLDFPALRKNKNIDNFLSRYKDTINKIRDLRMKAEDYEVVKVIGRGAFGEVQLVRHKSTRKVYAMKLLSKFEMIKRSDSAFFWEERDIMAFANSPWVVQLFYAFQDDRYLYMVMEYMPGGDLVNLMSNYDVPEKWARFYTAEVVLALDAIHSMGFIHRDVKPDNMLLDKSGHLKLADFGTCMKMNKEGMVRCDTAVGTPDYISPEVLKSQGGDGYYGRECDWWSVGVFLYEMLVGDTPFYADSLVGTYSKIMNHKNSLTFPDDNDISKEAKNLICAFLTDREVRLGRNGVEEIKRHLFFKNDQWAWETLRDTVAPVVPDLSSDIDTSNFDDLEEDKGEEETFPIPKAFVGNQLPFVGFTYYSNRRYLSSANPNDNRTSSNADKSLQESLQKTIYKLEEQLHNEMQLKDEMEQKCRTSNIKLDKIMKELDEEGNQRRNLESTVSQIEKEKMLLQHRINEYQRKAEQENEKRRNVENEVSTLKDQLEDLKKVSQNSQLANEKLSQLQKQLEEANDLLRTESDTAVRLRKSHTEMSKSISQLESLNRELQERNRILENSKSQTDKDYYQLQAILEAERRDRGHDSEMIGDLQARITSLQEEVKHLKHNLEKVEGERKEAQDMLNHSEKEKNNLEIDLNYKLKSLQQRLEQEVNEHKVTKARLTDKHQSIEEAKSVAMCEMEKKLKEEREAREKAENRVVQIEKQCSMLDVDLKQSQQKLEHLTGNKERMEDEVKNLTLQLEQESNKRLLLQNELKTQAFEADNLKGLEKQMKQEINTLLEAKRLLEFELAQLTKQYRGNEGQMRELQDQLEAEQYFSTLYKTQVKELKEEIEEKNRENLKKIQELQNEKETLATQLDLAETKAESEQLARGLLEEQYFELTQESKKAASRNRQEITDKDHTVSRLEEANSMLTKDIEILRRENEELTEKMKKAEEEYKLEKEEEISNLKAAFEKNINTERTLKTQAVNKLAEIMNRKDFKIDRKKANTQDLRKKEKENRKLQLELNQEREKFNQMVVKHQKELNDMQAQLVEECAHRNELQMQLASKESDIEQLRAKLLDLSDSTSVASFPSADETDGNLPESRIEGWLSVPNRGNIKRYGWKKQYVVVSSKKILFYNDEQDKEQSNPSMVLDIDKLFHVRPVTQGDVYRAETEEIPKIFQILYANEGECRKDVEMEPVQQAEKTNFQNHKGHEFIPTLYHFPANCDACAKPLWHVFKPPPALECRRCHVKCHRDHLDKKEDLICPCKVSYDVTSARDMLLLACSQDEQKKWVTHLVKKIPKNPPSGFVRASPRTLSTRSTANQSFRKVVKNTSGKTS

Compound | Kd
COc1cc2nccc(Oc3ccc(NC(=O)NC4CC4)c(Cl)c3)c2cc1C(N)=O [LENVATINIB] | > 30 µM (inactive)

molecular target: T5, ADP/ATP translocase 3 (Homo sapiens, UniProt P12236)
T5 sequence (P12236 whole entry): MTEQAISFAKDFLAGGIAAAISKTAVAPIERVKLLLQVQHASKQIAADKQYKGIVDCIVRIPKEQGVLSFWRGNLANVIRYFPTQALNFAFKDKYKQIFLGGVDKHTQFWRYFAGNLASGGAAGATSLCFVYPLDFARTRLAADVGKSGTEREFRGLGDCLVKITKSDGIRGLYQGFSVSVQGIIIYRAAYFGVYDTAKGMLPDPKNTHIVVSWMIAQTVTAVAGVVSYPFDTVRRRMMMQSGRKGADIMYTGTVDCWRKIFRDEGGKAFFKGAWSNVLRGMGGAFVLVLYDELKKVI

Compound | Kd
CN1CCN(c2ccc3nc(-c4c(N)c5c(F)cccc5[nH]c4=O)[nH]c3c2)CC1 [DOVITINIB] | > 30 µM (inactive)
Cc1cc(Nc2cc(N3CCN(C)CC3)nc(/C=C/c3ccccc3)n2)n[nH]1 [ENMD-2076] | > 30 µM (inactive)
CCn1c(-c2nonc2N)nc2c(C#CC(C)(C)O)ncc(OC[C@H]3CCCNC3)c21 [GSK-690693] | > 30 µM (inactive)
COc1cc2nccc(Oc3ccc(NC(=O)NC4CC4)c(Cl)c3)c2cc1C(N)=O [LENVATINIB] | > 30 µM (inactive)

molecular target: Serine/threonine-protein kinase 16 (Homo sapiens, UniProt O75716)
Sequence (O75716 whole entry): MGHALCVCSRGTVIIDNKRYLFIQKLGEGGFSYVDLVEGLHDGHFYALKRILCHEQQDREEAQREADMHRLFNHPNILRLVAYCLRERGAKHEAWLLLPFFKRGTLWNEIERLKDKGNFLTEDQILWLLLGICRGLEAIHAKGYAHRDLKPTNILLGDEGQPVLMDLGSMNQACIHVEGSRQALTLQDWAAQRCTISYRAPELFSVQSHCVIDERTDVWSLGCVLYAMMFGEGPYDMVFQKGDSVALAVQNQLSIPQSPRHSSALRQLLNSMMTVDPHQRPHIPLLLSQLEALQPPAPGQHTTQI

Compound | Kd
Cc1cc(Nc2cc(N3CCN(C)CC3)nc(/C=C/c3ccccc3)n2)n[nH]1 [ENMD-2076] | 0.702 µM (active)
COc1cc2nccc(Oc3ccc(NC(=O)NC4CC4)c(Cl)c3)c2cc1C(N)=O [LENVATINIB] | > 30 µM (inactive)

molecular target: Tyrosine-protein kinase Yes (Homo sapiens, UniProt P07947)
Sequence (P07947 whole entry): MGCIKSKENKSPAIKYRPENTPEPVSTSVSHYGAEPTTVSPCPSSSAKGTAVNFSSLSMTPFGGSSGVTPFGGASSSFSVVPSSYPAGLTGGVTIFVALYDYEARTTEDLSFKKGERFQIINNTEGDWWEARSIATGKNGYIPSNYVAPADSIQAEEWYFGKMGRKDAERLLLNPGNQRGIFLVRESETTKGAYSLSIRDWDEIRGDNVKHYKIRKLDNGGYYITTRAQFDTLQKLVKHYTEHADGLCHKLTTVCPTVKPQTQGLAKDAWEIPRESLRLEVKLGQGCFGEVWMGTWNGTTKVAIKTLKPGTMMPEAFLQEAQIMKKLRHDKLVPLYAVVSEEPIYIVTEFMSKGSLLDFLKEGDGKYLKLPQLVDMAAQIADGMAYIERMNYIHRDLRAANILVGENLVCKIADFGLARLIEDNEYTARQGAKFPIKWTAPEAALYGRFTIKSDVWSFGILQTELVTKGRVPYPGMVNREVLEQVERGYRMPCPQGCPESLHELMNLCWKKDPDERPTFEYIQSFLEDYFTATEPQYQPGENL

Compound | Kd
Cc1cc(Nc2cc(N3CCN(C)CC3)nc(/C=C/c3ccccc3)n2)n[nH]1 [ENMD-2076] | 0.441 µM (active)
COc1cc2nccc(Oc3ccc(NC(=O)NC4CC4)c(Cl)c3)c2cc1C(N)=O [LENVATINIB] | > 30 µM (inactive)
